Patent publication US7928108B2, “Pyridinone derivative for the treatment of premature ejaculation” (Glaxo Group Limited, priority 2007, dated 2011)

What was measured:
Human 5-HT1A receptor [1] = target: T1, Human 5-HT1A receptor (Homo sapiens, UniProt P08908); assay: Human 5-HT1A receptor functional potency, GTPγS binding protocol; type: biochemical; parameters: expressed in transfected cells; conditions: GTPγS binding, membranes of HEK293 cells transfected with human 5-HT1A; assay a); read-out: fpKi against 5-HT1A (converted)
T1 sequence (P08908 1-422): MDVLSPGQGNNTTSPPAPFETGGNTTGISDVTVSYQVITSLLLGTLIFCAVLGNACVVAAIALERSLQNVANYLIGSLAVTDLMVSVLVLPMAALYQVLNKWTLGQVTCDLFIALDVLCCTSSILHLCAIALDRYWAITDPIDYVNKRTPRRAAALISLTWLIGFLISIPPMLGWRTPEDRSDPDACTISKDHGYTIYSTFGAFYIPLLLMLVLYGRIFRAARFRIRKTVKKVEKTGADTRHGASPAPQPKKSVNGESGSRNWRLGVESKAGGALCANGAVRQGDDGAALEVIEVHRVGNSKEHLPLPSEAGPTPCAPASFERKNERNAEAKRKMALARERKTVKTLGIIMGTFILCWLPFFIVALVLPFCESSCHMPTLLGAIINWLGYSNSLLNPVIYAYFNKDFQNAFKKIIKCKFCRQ
Method: a) Human 5-HT1A Receptor Functional Potency
The functional potency of the compounds of the invention for the 5-HT1A receptor may be determined by the following GTPγS binding protocol. Cells used in the study are CHO Cells and Human Embryo Kidney (HEK293). Transfect cells with DNA coding for human receptor as follows: HEK293—5-HT1A. Initially dissolve test compounds in 100% dimethyl sulfoxide to a concentration of 10 mM. Serially dilute the test compounds in 100% dimethyl sulphoxide using a Biomek FX in 384 well assay plates, so that the final top concentration of test compound is 3 μM in the assay. Add the test compound at 1.0% total assay volume (TAV) to a solid, white, 384 well assay plate (Griener). Add 50% TAV of precoupled (for 60 mins @ RT) membranes (6 ug/well), Wheatgerm Agglutinin Polystyrene Scintillation Proximity Assay beads (RPNQ0260 Amersham International) (0.25 mg/well) in 20 mM HEPES pH 7.4, 100 mM NaCl, 3 mM MgCl2 and 10 μM GDP and saponin 60 m/well FAC was also added. The third addition may be either a 20% TAV addition of either; buffer for agonist format, or EC80 final assay concentration (FAC) of agonist, prepared in assay buffer, 5HT, for antagonist format.
Start the assay by the addition of 29% TAV of GTPγS 0.38 nM FAC.
After all additions, incubate the assay plates at RT for 2-3 hours. […] Read the assay plates between 3-6 hours after the final addition.

Human 5-HT1B receptor = target: T2, Human 5-HT1B receptor (Homo sapiens, UniProt P28222); assay: Human 5-HT1B receptor affinity, [3H]-5-HT radioligand binding; conditions: CHO cell membranes expressing 5-HT1B, [3H]-5-HT 3 nM, 37° C. 45 minutes; assay b); read-out: pKi against 5-HT1B (converted)
T2 construct: expressed in transfected cells; host or cells: CHO
Method: (§1) b) Human 5-HT1A, 5-HT1B and 5-HT1D Receptor Affinity
(§2) The affinities of the compounds of the invention for the 5-HT1A, 5-HT1B and 5-HT1D receptors may be determined by the following assay.
(§3) Homogenise chinese hamster ovary (CHO) cells expressing 5-HT1A receptors (4×10^7 cells/ml) in Tris buffer and store in 1 ml aliquots. Homogenise CHO cells expressing 5-HT1B receptors (4×10^7 cells/ml) in Tris buffer and store in 1.5 ml aliquots. Homogenise CHO cells expressing 5-HT1D receptors (1×10^8/ml) in Tris buffer and stored in 1 ml aliquots. The binding assays are carried out in a total volume of 500 μl. For each compound to be tested make up seven solutions ranging in concentration from 0.3 mM to 0.3 nM (100× final concentrations). Dispense 5 μl of solution containing the test compound per well and add 100 μl of radioligand at 5× final desired assay concentration, i.e. [^3H]-5-HT 15 nM (final assay concentration: 3 nM) in Tris Mg HCl buffer (pH 7.7) for 5-HT1B/1D receptors and [^3H]WAY100635 2.5 nM (final assay concentration: 0.5 nM) in Tris Mg HCl buffer (pH 7.7) containing 150 μM GPP(NH)p (final assay concentration: 30 μM) for 5-HT1A receptors. Add 400 μl/well of a cell membrane suspension in Tris Mg HCl buffer (pH 7.7) to make a total volume of 505 μl. Incubate at 37° C. for 45 minutes. […] Measure radioactivity using Topcount scintillation counting. […]

Human 5-HT1A receptor [2] = target: T1, Human 5-HT1A receptor; assay: Human 5-HT1A receptor affinity, [3H]WAY100635 radioligand binding; parameters: expressed in transfected cells; host or cells: CHO; conditions: CHO cell membranes expressing 5-HT1A, [3H]WAY100635 0.5 nM, 37° C. 45 minutes; assay b); read-out: pKi against 5-HT1A (converted)
Method: as §1, §2, §3

T2 sequence (P28222 whole entry): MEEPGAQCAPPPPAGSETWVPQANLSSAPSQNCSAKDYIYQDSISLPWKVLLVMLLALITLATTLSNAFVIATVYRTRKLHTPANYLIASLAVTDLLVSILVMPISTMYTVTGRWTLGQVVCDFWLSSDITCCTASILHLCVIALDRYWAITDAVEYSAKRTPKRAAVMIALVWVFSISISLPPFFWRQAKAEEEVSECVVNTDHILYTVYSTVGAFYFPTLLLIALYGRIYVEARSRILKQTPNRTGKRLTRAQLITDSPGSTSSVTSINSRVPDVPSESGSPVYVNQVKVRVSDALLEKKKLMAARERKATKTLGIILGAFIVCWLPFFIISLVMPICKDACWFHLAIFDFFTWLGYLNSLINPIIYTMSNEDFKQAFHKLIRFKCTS

- Ki (Human 5-HT1A receptor [1]): 0.501 nM
- Ki (Human 5-HT1B receptor): 200 nM
- Ki (Human 5-HT1A receptor [2]): 0.501 nM
SMILES: COc1cccn(CCCCN2CCN(c3cccc4nc(C)ccc34)CC2)c1=O [compound of formula (I), 3-(methyloxy)-1-{4-[4-(2-methyl-5-quinolinyl)-1-piperazinyl]butyl}-2(1H)-pyridinone]
